SMILES strings stand for the structures.

Experimental findings from the supplement of paper PMC9265050, “Inhibition of RNA Binding in SND1 Increases the Levels of miR-1-3p and Sensitizes Cancer Cells to Navitoclax” (Cancers, 2022) are described below.

The subject of this assay is SW480. In words: drug sensitivity score (DSS, integrated dose-response area); higher = more sensitive (stronger viability reduction); extreme values may be limits of the assay. In a few lines:
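SW480 cells stably carrying doxycycline-inducible control or SND1-targeting shRNA were induced with 0.1 µg/mL doxycycline for 7 days. They were then plated at 1000 cells per well in 384-well plates holding 525 commercially available small-molecule inhibitors at five concentrations. Viability was read with CellTiter-Glo after 72 h. The drug sensitivity score integrates the area under a fitted non-linear dose–response model.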

The mark [1] stands for this setting: shRNA: SND1 shRNA1 (SND1 silenced).
Where [2] appears, read: shRNA: SND1 shRNA2 (SND1 silenced).
Where [3] appears, read: shRNA: control shRNA (non-targeting).

With `COc1cc2nccc(Oc3ccc(NC(=O)C4(C(=O)Nc5ccc(F)cc5)CC4)cc3)c2cc1OC` [Cabozantinib], the drug sensitivity score is, setting by setting: under setting [1], 0 DSS; under setting [2], 2.7 DSS; under setting [3], 0.6 DSS.
The like results for `CNCc1ccc(-c2[nH]c3cc(F)cc4c3c2CCNC4=O)cc1` [Rucaparib] were, in that order, 0.3 DSS, 3 DSS and 4.6 DSS.
As for `O=C(O)C1(C(=O)O)CCC1.[NH2-].[NH2-].[Pt+2]` [Carboplatin], the drug sensitivity score under setting [1] was 1 DSS and the drug sensitivity score under setting [3] was found to be 0.5 DSS.
In the case of `CC(C)Nc1cc(-c2c[nH]c(C(=O)N[C@H](CO)c3cccc(Cl)c3)c2)c(Cl)cn1` [Ulixertinib], the drug sensitivity score is 10.2 DSS under setting [1], 2.3 DSS under setting [2] and 7.6 DSS under setting [3].
Taken in the same sequence, the figures for `CNC(=O)c1ccc(-c2cnc3ncc(Cc4ccc5ncccc5c4)n3n2)cc1F` [NVP-INC280] were 0 DSS, 5.7 DSS and 5.8 DSS.
The like results for `CN(C)C[C@@H]1CCn2cc(c3ccccc32)C2=C(C(=O)NC2=O)c2cn(c3ccccc23)CCO1` [Ruboxistaurin] were, in that order, 8.1 DSS, 7.8 DSS and 7.4 DSS.
The like results for `Nc1cccc2c1C(=O)N(C1CCC(=O)NC1=O)C2=O` (centres undefined) [Pomalidomide] were, in that order, 0 DSS, 0 DSS and 0 DSS.
As to `S=C(NCc1ccc2c(c1)OCO2)N1CCN(c2ncnc3c2oc2ccccc23)CC1` [Amuvatinib], the drug sensitivity score reads like this: under setting [1], 3.9 DSS; under setting [2], 6.4 DSS; under setting [3], 6.7 DSS.
As for `CN(Cc1cnc2nc(N)nc(N)c2n1)c1ccc(C(=O)N[C@@H](CCC(=O)O)C(=O)O)cc1` [Methotrexate], the drug sensitivity score stood at 11.7 DSS under setting [1] and 7.4 DSS under setting [3].
Take `COc1cc(OC)c(/C=C/S(=O)(=O)Cc2ccc(OC)c(NCC(=O)O)c2)c(OC)c1` [Rigosertib]: the drug sensitivity score runs as follows: under setting [1], 15.1 DSS; under setting [2], 18.2 DSS; under setting [3], 16.4 DSS.
As to `Cn1cc(-c2ccc3nnc(Sc4ccc5ncccc5c4)n3n2)cn1` [SGX-523], the drug sensitivity score reads like this: under setting [1], 0 DSS; under setting [3], 0 DSS.
With `Cn1c(=O)c(F)c(Nc2ccc(I)cc2F)c2c(=O)n(C[C@@H](O)CO)cnc21` [TAK-733], the drug sensitivity score reads like this: under setting [1], 21.7 DSS; under setting [2], 12.2 DSS; under setting [3], 12 DSS.
Taken in the same sequence, the figures for `CN(C)CCN1C(=O)c2cccc3cc(N)cc(c23)C1=O` [Amonafide] were 8.8 DSS, 5.2 DSS and 7.8 DSS.
On to `COc1cc(N2CCN(C)CC2)ccc1Nc1nccc(-c2cn(C)c3cnccc23)n1` [AZ191], for which the drug sensitivity score runs as follows: under setting [1], 6.8 DSS; under setting [3], 7.9 DSS.
Take `Cc1ccc(NC(=O)c2ccc(CN3CC[C@H](N(C)C)C3)c(C(F)(F)F)c2)cc1Nc1nccc(-c2cncnc2)n1` [Bafetinib]: the drug sensitivity score runs as follows: under setting [1], 0.3 DSS; under setting [2], 0 DSS; under setting [3], 0 DSS.
For the compound `C=CCn1c(=O)c2cnc(Nc3ccc(N4CCN(C)CC4)cc3)nc2n1-c1cccc(C(C)(C)O)n1` [MK1775], the drug sensitivity score by setting is: under setting [1], 13.5 DSS; under setting [2], 11.5 DSS; under setting [3], 11.9 DSS.
Regarding `Cc1nn(C)c(COc2ccc(N3CCN(S(=O)(=O)N(C)C)CC3)cc2)c1-c1cccc2c(CCCOc3cccc4ccccc34)c(C(=O)O)n(CCN3CCOCC3)c12`, the drug sensitivity score by setting is: under setting [1], 4.9 DSS; under setting [2], 4.4 DSS; under setting [3], 5.7 DSS.
Taken in the same sequence, the figures for `C=CC(=O)N1CCC(Oc2cc3c(Nc4ccc(Cl)c(Cl)c4F)ncnc3cc2OC)CC1` [Poziotinib] were 0.6 DSS, 4.1 DSS and 0.2 DSS.
`O=C(NOCCO)c1ccc2cncn2c1Nc1ccc(I)cc1F` [GDC-0623]: the drug sensitivity score by setting is: under setting [1], 13.9 DSS; under setting [2], 7.6 DSS; under setting [3], 7.4 DSS.
Taken in the same sequence, the figures for `CCCOc1ccn2c(C(C)=O)cc(-c3ccccc3S(C)(=O)=O)c2c1` [GSK2801] were 0 DSS, 0 DSS and 0 DSS.
The like results for `O=C(O)c1ccc2c(c1)nc(Nc1cccc(Cl)c1)c1ccncc12` [Silmitasertib] were, in that order, 2.1 DSS, 2.1 DSS and 0.8 DSS.
The like results for `O=C(Nc1ccc2[nH]nc(-c3ccncc3)c2c1)[C@@H]1CCN(CC(=O)N2CCN(c3ccc(-c4ncccn4)cc3)CC2)C1` were, in that order, 14.2 DSS, 8.8 DSS and 7.9 DSS.
For the compound `Cc1cc(C)c(CNC(=O)c2cc(-c3ccc(CN4CCOCC4)cc3)cc3c2cnn3C2CCCC2)c(=O)[nH]1` [EPZ-5687], the drug sensitivity score worked out at 0 DSS under setting [1], 0 DSS under setting [2] and 0 DSS under setting [3].
For the compound `COc1c(C)cnc(Cn2cnc3c(Cl)nc(N)nc32)c1C` [BIIB021], the drug sensitivity score is 17.4 DSS under setting [1], 18.4 DSS under setting [2] and 17.8 DSS under setting [3].
For the compound `Cc1cc(Nc2ncc(Cl)c(Nc3ccccc3S(=O)(=O)C(C)C)n2)c(OC(C)C)cc1C1CCNCC1` [Ceritinib], the drug sensitivity score came out at 2.1 DSS under setting [1], 0.8 DSS under setting [2] and 0.2 DSS under setting [3].
Take `C[C@@H](Oc1cc(-c2cnn(C3CCNCC3)c2)cnc1N)c1c(Cl)ccc(F)c1Cl` [Crizotinib]: the drug sensitivity score came to 0.6 DSS under setting [1], 0.2 DSS under setting [2] and 2.9 DSS under setting [3].
In the case of `Oc1ncnc2[nH]ncc12` [Allopurinol], the drug sensitivity score worked out at 0.2 DSS under setting [1], 0 DSS under setting [2] and 1.2 DSS under setting [3].
The like results for `COc1cc2c(cc1O)CC[C@@H]1[C@@H]2CC[C@]2(C)[C@@H](O)CC[C@@H]12` [2-methoxyestradiol] were, in that order, 5.5 DSS, 6.6 DSS and 6.1 DSS.
Taken in the same sequence, the figures for `CNC(=O)c1cccc2cc(Oc3ccnc4cc(OCC5(N)CC5)c(OC)cc34)ccc12` [Lucitanib] were 2.3 DSS, 0.6 DSS and 3 DSS.
The like results for `CCCCC(=O)OCC(=O)[C@]1(O)Cc2c(O)c3c(c(O)c2[C@@H](O[C@H]2C[C@H](NC(=O)C(F)(F)F)[C@H](O)[C@H](C)O2)C1)C(=O)c1c(OC)cccc1C3=O` [Valrubicin] were, in that order, 8.7 DSS, 7.8 DSS and 8.2 DSS.
Turning to `CC(=O)O[C@]1(C(C)=O)CC[C@H]2[C@@H]3C=C(C)C4=CC(=O)CC[C@]4(C)[C@H]3CC[C@@]21C` [Megestrol acetate], the drug sensitivity score reads like this: under setting [1], 0 DSS; under setting [2], 0 DSS; under setting [3], 0 DSS.
